This passage reports Kd results from PMC2631241 (Journal of combinatorial chemistry, 2008).

The assay addresses human serum albumin (HSA) (Homo sapiens, UniProt P02768). Put plainly: 1D 1H NMR line-broadening titration of ligand with HSA.

human serum albumin (HSA), sequence (P02768 25-609): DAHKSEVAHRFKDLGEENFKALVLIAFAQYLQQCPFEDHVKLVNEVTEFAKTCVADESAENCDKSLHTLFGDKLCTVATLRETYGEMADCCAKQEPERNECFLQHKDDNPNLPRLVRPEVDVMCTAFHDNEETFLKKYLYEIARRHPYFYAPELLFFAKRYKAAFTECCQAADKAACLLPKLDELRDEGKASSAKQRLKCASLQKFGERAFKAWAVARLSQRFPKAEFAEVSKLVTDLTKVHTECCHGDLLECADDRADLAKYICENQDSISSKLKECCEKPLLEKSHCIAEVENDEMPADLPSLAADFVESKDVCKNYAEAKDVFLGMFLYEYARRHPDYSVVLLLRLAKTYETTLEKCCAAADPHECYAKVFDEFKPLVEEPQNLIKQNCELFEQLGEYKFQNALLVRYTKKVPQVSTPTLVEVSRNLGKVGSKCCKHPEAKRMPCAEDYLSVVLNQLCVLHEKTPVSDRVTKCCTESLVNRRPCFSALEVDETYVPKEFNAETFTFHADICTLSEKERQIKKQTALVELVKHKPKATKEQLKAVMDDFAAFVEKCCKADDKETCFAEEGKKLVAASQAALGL

As usually defined, the Kd is the concentration at which binding is half-saturated. The low end stands for higher affinity, the high end for lower affinity. In turn, `CCOC(=O)C(C)(C)Oc1ccc(Cl)cc1` [Clofibrate, clofibrate] gave a Kd of 1.7 ± 3.4 µM.

Compound `O=S1(=O)OC(c2ccc(O)cc2)(c2ccc(O)cc2)c2ccccc21` [Phenol Red, phenol red] had an equilibrium dissociation constant (Kd) of 36.8 ± 6.5 µM. This Kd lies about 22-fold higher than the previous one.

`O=C1NC(=O)C(c2ccccc2)(c2ccccc2)N1` [Phenytoin, phenytoin] yielded a Kd of 132 ± 12.5 µM. This Kd lies about 3.6-fold higher than the previous one.
